According to ChEMBL document CHEMBL4014311, “Discovery of a Hepatitis C Virus NS5B Replicase Palm Site Allosteric Inhibitor (BMS-929075) Advanced to Phase 1 Clinical Studies” (J Med Chem, 2017):
pEC50, pIC50: −log10 of the molar value. Activity calls are given as the source filed them. The calls are words filed in the database; no cut-off is given here.

Key:
Hepatitis C virus [1] = assay: Antiviral activity against HCV genotype 1b infected in human HuH7 cells after 3 days by luciferase reporter assay; type: functional, cell-based, Hepacivirus hominis; conditions: for pEC50: Hepatitis C virus, genotype 1b, Huh-7, 72 h, read-out: EC50
Hepatitis C virus [2] = assay: Antiviral activity against HCV genotype 1a infected in human HuH7 cells after 3 days by luciferase reporter assay; type: functional, cell-based, Hepacivirus hominis, subtype 1a; conditions: for pEC50: Hepatitis C virus, subtype 1a, Huh-7, 72 h, read-out: EC50
[3] = Inhibition of HCV genotype 1b NS5B replicase C316N mutant infected in human HuH7 cells assessed as reduction of viral replication after 3 days by luciferase reporter assay; type: cell-based, Hepatitis C virus subtype 1b; conditions: Hepatitis C virus, Huh-7, 72 h
[4] = Inhibition of HCV genotype 1b NS5B replicase expressed in Escherichia coli BL21(DE3) using polyA/biotinylated oligo(dT12) as template/primer in presence of [3H]UTP after 60 mins by SPA assay; design: species or system Hepatitis C virus subtype 1b
Cytochrome P450 2C8 = target: T1, Cytochrome P450 2C8 (Homo sapiens, UniProt P10632); assay: Inhibition of microsomal CYP2C8 (unknown origin); type: ADME
T1 sequence (P10632 whole entry): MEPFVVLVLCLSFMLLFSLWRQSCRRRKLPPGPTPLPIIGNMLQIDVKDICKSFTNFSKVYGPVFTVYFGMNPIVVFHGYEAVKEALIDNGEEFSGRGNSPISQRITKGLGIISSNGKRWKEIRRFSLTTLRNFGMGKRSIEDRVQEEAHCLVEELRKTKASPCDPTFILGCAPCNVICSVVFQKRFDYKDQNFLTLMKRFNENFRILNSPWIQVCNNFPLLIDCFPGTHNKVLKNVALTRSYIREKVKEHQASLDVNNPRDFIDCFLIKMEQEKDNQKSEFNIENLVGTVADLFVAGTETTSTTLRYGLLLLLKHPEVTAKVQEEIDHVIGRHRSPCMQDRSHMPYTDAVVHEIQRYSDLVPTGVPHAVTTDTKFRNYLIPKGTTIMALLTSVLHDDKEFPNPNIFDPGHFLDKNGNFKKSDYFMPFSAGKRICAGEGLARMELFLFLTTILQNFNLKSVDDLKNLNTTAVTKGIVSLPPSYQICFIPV

[5] = Half life in human liver microsomes; type: ADME, microsome
[6] = Metabolic stability in rat liver microsomes assessed as parent compound remaining after 10 mins; type: ADME, microsome; conditions: read-out: Stability
[7] = Metabolic stability in human liver microsomes assessed as parent compound remaining after 10 mins; type: ADME, microsome; conditions: read-out: Stability
Cytochrome P450 3A4 = Cytochrome P450 3A4 (Homo sapiens, UniProt P08684); assay: Inhibition of microsomal CYP3A4 (unknown origin); type: ADME
Chain of Cytochrome P450 3A4 (P08684 whole entry): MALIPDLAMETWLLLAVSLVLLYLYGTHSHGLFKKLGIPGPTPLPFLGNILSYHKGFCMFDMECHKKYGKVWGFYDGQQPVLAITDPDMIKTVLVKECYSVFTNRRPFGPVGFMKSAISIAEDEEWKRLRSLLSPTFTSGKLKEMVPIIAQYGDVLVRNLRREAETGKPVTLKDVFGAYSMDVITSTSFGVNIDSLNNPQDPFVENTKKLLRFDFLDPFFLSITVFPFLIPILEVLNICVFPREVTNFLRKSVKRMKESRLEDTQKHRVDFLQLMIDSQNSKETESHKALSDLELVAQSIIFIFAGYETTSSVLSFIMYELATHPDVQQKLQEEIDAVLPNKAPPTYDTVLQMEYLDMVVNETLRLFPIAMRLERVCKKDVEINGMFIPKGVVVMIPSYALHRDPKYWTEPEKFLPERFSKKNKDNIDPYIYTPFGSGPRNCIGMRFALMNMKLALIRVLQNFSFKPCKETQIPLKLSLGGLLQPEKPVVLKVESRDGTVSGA

[8] = Cytotoxicity against human HuH7 cells after 3 days by CellTiter-Blue assay; type: cell-based, Huh-7
Hepatitis C virus [9] = assay: Antiviral activity against HCV genotype 1b infected in human HuH7 cells at >= 10 times antiviral EC50 after 3 days by luciferase reporter assay; type: functional, cell-based; conditions: Hepacivirus hominis
Hepatitis C virus [10] = assay: Antiviral activity against HCV genotype 1b infected in human HuH7 cells co-treated with daclatasvir after 3 days by luciferase reporter assay; type: functional, cell-based; conditions: Hepacivirus hominis
[11] = Half life in rat liver microsomes; type: ADME, microsome
[12] = Half life in monkey liver microsomes; type: ADME, Macaca mulatta, microsome; conditions: rhesus monkey

Compound | pEC50 (Hepatitis C virus [1]) | pEC50 (Hepatitis C virus [2]) | pEC50 [3] | pIC50 [4] | further results
CNC(=O)c1c(-c2ccc(F)cc2)oc2ccc(-c3cc(C(=O)NC4(c5cnccn5)CC4)ccc3C)cc12 | 8.59 | 7.82 | 6.51 | – | –
CNC(=O)c1c(-c2ccc(F)cc2)oc2ccc(-c3ccccc3C(=O)O)cc12 | – | – | – | < 4.30 | –
CNC(=O)c1c(-c2ccc(F)cc2)oc2ccc(-c3ccc(C(=O)NC(C)(C)C)cc3)cc12 | 6.01 | – | – | 5.44 | –
CNC(=O)c1c(-c2ccc(F)cc2)oc2ccc(OC(C)C)cc12 | 4.85 | < 4.96 | – | 4.68 | –
CNC(=O)c1c(-c2ccc(F)cc2)oc2ccc(-c3ccc(C(=O)O)cc3)cc12 | 5.35 | < 4.70 | – | 6.19 | –
CNC(=O)c1c(-c2ccc(F)cc2)oc2ccc(-c3cccc(C(=O)NC(C)c4ccccc4)c3)cc12 (configuration not stated) | 7.27 | 6.22 | – | 7.59 | –
CNC(=O)c1c(-c2ccc(F)cc2)oc2ccc(-c3cc(C(=O)NC4(c5ccccc5)CC4)ccc3Cl)cc12 | 8.60 | 8.21 | 7.20 | – | –
CNC(=O)c1c(-c2ccc(F)cc2)oc2ccc(-c3cccc(C(=O)O)c3)cc12 | 4.92 | < 4.70 | – | 5.96 | –
CNC(=O)c1c(-c2ccc(F)cc2)oc2ccc(-c3cc(C(=O)NC4(c5cccnn5)CC4)ccc3C)cc12 | 8.54 | 7.77 | 6.86 | – | –
CNC(=O)c1c(-c2ccc(F)cc2)oc2ccc(-c3cccc(C(N)=O)c3)cc12 | < 5.43 | – | – | 5.24 | –
CNC(=O)c1c(-c2ccc(F)cc2)oc2ccc(-c3cc(C(=O)NC4(c5ccccc5)CC4)ccc3C)cc12 | 8.89 | 8.68 | 7.46 | – | pIC50 (Cytochrome P450 2C8): 5.82; half-life [5]: 11 min; remaining at 10 min [6]: 39%; remaining at 10 min [7]: 68%; pIC50 (Cytochrome P450 3A4): 5.68; CC50 at 72 h [8]: > 25000 nM
CNC(=O)c1c(-c2ccc(F)cc2)oc2ccc(-c3cccc(C(=O)NCc4ccccc4)c3)cc12 | 7.17 | 5.74 | – | 7.04 | –
CNC(=O)c1c(-c2ccc(F)cc2)oc2ccc(-c3cc(C(=O)NC4(c5ccccc5)CC4)ccc3OC)cc12 | 8.74 | 8.10 | 7.49 | – | –
CNC(=O)c1c(-c2ccc(F)cc2)oc2ccc(-c3cccc(C(=O)NC(C)(C)C)c3)cc12 | 7.74 | 6.62 | – | 7.39 | –
CNC(=O)c1c(-c2ccc(F)cc2)oc2ccc(-c3cc(C(=O)NC4(c5ccncn5)CC4)ccc3C)cc12 | 8.72 | 7.89 | 6.96 | – | –
C=C[C@@H]1C[C@]1(NC(=O)[C@@H]1C[C@@H](Oc2ncc(OC)c3ccc(Cl)cc23)CN1C(=O)[C@@H](NC(=O)OC(C)(C)C)C(C)(C)C)C(=O)NS(=O)(=O)C1CC1 | – | – | – | – | Activity (Hepatitis C virus [9]): Active; Activity (Hepatitis C virus [10]): Active
CNC(=O)c1c(-c2ccc(F)cc2)oc2ccc(-c3cc(C(=O)NC4(c5ccccc5)CC4)ccc3F)cc12 | 8.44 | 7.80 | 6.82 | – | –
CNC(=O)c1c(-c2ccc(F)cc2)oc2ccc(-c3cccc(C(=O)NC(C)(C)c4ccccc4)c3)cc12 | 8.00 | 6.80 | – | 8.10 | –
O=C(Nc1c(OCc2ccc(Cl)cc2)cccc1C(=O)O)c1ccccc1 | – | – | – | 5.08 | EC50 (Hepatitis C virus [1]): Not Active; EC50 (Hepatitis C virus [2]): Not Active
CNC(=O)c1c(-c2ccc(F)cc2)oc2ccc(-c3cccc(C(=O)N(C)C(C)(C)C)c3)cc12 | 7.12 | 5.85 | – | 6.92 | –
CNC(=O)c1c(-c2ccc(F)cc2)oc2ccc(-c3cccc(C(=O)NC(C)C)c3)cc12 | 7.01 | 6.20 | – | 6.72 | –
CCNC(=O)c1cccc(-c2ccc3oc(-c4ccc(F)cc4)c(C(=O)NC)c3c2)c1 | 6.48 | 6.00 | – | 6.11 | –
CNC(=O)c1c(-c2ccc(F)cc2)oc2ccc(-c3cccc(C(=O)NC4(c5ccccc5)CC4)c3)cc12 | 8.44 | 7.44 | – | 8.23 | –
CNC(=O)c1c(-c2ccc(F)cc2)oc2ccc(-c3cccc(C(=O)OC)c3)cc12 | – | – | – | < 4.30 | –
CNC(=O)c1c(-c2ccc(F)cc2)oc2ccc(-c3ccc(C(=O)O)s3)cc12 | – | – | – | 6.44 | –
CNC(=O)c1c(-c2ccc(F)cc2)oc2ccc(-c3cccc(CO)c3)cc12 | – | – | – | < 4.30 | –
CNC(=O)c1c(-c2ccc(F)cc2)oc2ccc(-c3cc(C(=O)NC4(c5nc(C)no5)CC4)ccc3C)cc12 | 9.09 | 8.92 | 7.34 | – | half-life [11]: 10 min; half-life [12]: 25 min
CNC(=O)c1c(-c2ccc(F)cc2)oc2ccc(-c3cc(C(=O)NC4(c5cccnc5)CC4)ccc3C)cc12 | 8.66 | 7.77 | 6.71 | – | pIC50 (Cytochrome P450 2C8): 6.46; remaining at 10 min [6]: 0.6%; remaining at 10 min [7]: 0.7%; pIC50 (Cytochrome P450 3A4): 7.20
CNC(=O)c1c(-c2ccc(F)cc2)oc2ccc(-c3cc(C(=O)NC4(c5ccncc5)CC4)ccc3C)cc12 | 9.08 | 8.08 | 7.20 | – | pIC50 (Cytochrome P450 2C8): 7.59; remaining at 10 min [6]: 11%; remaining at 10 min [7]: 11%; pIC50 (Cytochrome P450 3A4): 7.14
